Consider twelve compounds from US20090137499A1, “BENZYLPHENYL GLUCOPYRANOSIDE DERIVATIVE” (priority 2006, published 2009).

Molecules are shown by their SMILES.

The experiment has as its target T1, human SGLT1 (Homo sapiens, UniProt P13866).
T1 construct: expressed in transfected cells
T1 sequence (P13866 1-664): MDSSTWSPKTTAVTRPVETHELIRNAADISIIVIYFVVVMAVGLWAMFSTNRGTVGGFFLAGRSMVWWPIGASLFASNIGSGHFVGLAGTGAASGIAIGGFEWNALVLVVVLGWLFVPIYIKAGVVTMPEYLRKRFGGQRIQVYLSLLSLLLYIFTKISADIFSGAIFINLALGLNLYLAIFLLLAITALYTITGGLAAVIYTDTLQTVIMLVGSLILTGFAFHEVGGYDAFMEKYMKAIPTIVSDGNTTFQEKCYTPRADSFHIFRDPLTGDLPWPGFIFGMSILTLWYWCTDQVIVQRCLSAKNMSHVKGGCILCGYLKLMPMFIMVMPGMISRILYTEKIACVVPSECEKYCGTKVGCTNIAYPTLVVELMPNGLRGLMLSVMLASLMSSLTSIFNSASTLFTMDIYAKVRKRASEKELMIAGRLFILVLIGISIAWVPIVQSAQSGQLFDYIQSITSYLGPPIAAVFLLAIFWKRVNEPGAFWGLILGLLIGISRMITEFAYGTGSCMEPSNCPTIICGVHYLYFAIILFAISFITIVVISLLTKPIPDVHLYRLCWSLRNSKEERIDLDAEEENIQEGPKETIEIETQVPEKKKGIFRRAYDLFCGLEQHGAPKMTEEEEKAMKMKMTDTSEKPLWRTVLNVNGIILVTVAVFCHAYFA
In words: Determination of SGLT1 inhibiting activity using human SGLT1 expressing cell ([14C]-α-methyl-D-glucopyranoside uptake). It counts as cell-based. To be noted: HEK-SGLT1 cells, 1 mM [14C]-α-methyl-D-glucopyranoside, 37° C., 30 min. As for the experimental part: Determination of SGLT1 Inhibiting Activity Using Human SGLT1 Expressing Cell
1) Preparation of Vector Expressing Human SGLT1 cDNA in Animal Cell
Amplification was performed by PCR using human SGLT1 cDNA clone (Origene: Clone Number, TC119918; GenBank accession number, NM 000343) as a template. The sense oligonucleotide primer for PCR was 5′-[…]-3′ (Primer 1: SEQ ID NO: 1 in the sequence listing),
and the antisense oligonucleotide primer was 5′-[…]-3′ (Primer 2: SEQ ID NO: 2 in the sequence listing).
The PCR product was subjected to agarose electrophoresis, then a target DNA fragment was recovered from a single band corresponding to 2013 bases, digested with restriction enzymes HindIII and XhoI, and introduced into the HindIII/XhoI site of vector pCMV-Script (Stratagene) to obtain SGLT1 expressing plasmid pCMV-SGLT1. A HindIII/XhoI fragment was excised from pCMV-SGLT1 and introduced into the BamHI/XhoI site of pENTR1A (Gateway, Invitrogen) to prepare pENTR-SGLT1. Retrovirus vector pLPCX (Clontech) into which Gateway Vector Conversion System Cassette A (Invitrogen) was introduced was used as the destination plasmid to prepare SGLT1 expressing retrovirus vector pLPCX-SGLT1.
2) Establishment of Human SGLT1 Expressing Cell
The retrovirus pLPCX-SGLT1 obtained in 1) was transfected into integrin αvβ3 expressing HEK-293 cells and, the cells were treated with antibiotic G418 (brand name, Geneticin: Invitrogen) and puromycin (Clontech) to obtain HEK-SGLT1 cells stably expressing the target vector having resistance. The stably expressing cells were cultured and maintained in DMEM medium containing […] G418, […] puromycin, 3 mM KGT-1075, and 10% FBS.
3) Determination of SGLT1 Inhibiting Activity
HEK-SGLT1 cells were suspended at a density of 10^6 cells/mL in DMEM medium containing […] G418, 1 mg/ml puromycin, and 10% FBS, and 100 μL was seeded in each well of a type 1 collagen-coated 96-well culture plate (Corning). On the following day, the medium was replaced with a sugar uptake buffer (10 mM HEPES [pH 7.5], 5 mM Tris-HCl [pH 7.5], 140 mM NaCl, 2 mM KCl, 1 mM CaCl2, 1 mM MgCl2), and the cells were cultured with 1 mM [^14C]-α-methyl-D-glucopyranoside (0.1 mCi) and the test compound at 37° C. for 30 min and then washed 3 times with a washing buffer (10 mM HEPES [pH 7.5], 5 mM Tris-HCl [pH 7.5], 140 mM choline chloride, 2 mM KCl, 1 mM CaCl2, 1 mM MgCl2). 100 μL of liquid scintillation cocktail (brand name, Supermix: Perkin-Elmer) was added to each well of the 96-well plate and stirred for 10 min, and then radioactivity was determined with micro β (Perkin-Elmer), a type of liquid scintillation counter. The value as the sugar uptake activity was obtained by deducting the radioactivity in the presence of an excess amount of an SGLT1 inhibiting compound as the background from each measured value, the inhibition rate (%) was calculated from the control sugar uptake activity obtained without using a test compound and the sugar uptake activity obtained using a test compound having a predetermined the concentration, and concentrations of the test compound at which the sugar uptake activity was inhibited by 50% were assessed.

As usually defined, the IC50 is the point on the concentration scale where inhibition reaches its midpoint. Lower therefore signals greater potency in that assay. `COc1ccc(Cc2ccc(CO)cc2O[C@@H]2O[C@H]([C@@H](C)O)[C@@H](O)[C@H](O)[C@H]2O)c(F)c1` [Example 82, 2-(2-Fluoro-4-methoxybenzyl)-5-hydroxymethylphenyl 7-deoxy-D-glycero-β-D-gluco-heptopyranoside] returned an IC50 of 219 nM. Consider `COc1ccc(Cc2c(OC)cc(CO)cc2O[C@@H]2O[C@H]([C@@H](C)O)[C@@H](O)[C@H](O)[C@H]2O)cc1` [Example 83, 5-Hydroxymethyl-3-methoxy-2-(4-methoxybenzyl)phenyl 7-deoxy-D-glycero-β-D-gluco-heptopyranoside], for which inhibition was half-maximal at 142 nM (IC50). The compound `COc1ccc(Cc2c(F)cc(CO)cc2O[C@@H]2O[C@H]([C@@H](C)O)[C@@H](O)[C@H](O)[C@H]2O)cc1` [Example 84, 3-Fluoro-5-hydroxymethyl-2-(4-methoxybenzyl)phenyl 7-deoxy-D-glycero-β-D-gluco-heptopyranoside] yielded an IC50 of 31 nM.

As to `C[C@@H](O)[C@H]1O[C@@H](Oc2cc(CO)cc(F)c2Cc2ccc(C3CC3)cc2)[C@H](O)[C@@H](O)[C@@H]1O` [Example 88, 2-(4-Cyclopropylbenzyl)-3-fluoro-5-hydroxymethylphenyl 7-deoxy-D-glycero-β-D-gluco-heptopyranoside], the midpoint of inhibition, the IC50, lay at 51 nM. In turn, `CCc1ccc(Cc2c(C)cc(CO)cc2O[C@@H]2O[C@H]([C@@H](C)O)[C@@H](O)[C@H](O)[C@H]2O)cc1` [Example 89, 2-(4-Ethylbenzyl)-5-hydroxymethyl-3-methylphenyl 7-deoxy-D-glycero-β-D-gluco-heptopyranoside] displayed an IC50 of 81 nM.

With `CCOc1ccc(Cc2ccc(CO)cc2O[C@@H]2O[C@H]([C@@H](C)O)[C@@H](O)[C@H](O)[C@H]2O)cc1` [Example 93, 2-(4-Ethoxybenzyl)-5-hydroxymethylphenyl 7-deoxy-D-glycero-β-D-gluco-heptapyranoside], half-maximal inhibition (IC50) was put at 430 nM. In the case of `COc1ccc(Cc2c(C)cc(CO)cc2O[C@@H]2O[C@H]([C@@H](C)O)[C@@H](O)[C@H](O)[C@H]2O)cc1` [Example 94, 5-Hydroxymethyl-2-(4-methoxybenzyl)-3-methylphenyl 7-deoxy-D-glycero-β-D-gluco-heptopyranoside], the IC50 turned out to be 37 nM. `C[C@@H](O)[C@H]1O[C@@H](Oc2cc(CO)cc(Cl)c2Cc2ccc(OC3CC3)cc2)[C@H](O)[C@@H](O)[C@@H]1O` [Example 95, 3-Chloro-2-(4-cyclopropoxybenzyl)-5-hydroxymethyl-phenyl 7-deoxy-D-glycero-β-D-gluco-heptopyranoside] gave an IC50 of 82 nM. `Cc1cc(CO)cc(O[C@@H]2O[C@H]([C@@H](C)O)[C@@H](O)[C@H](O)[C@H]2O)c1Cc1ccc(OC2CC2)cc1` [Example 96, 2-(4-Cyclopropoxybenzyl)-5-hydroxymethyl-3-methyl-phenyl 7-deoxy-D-glycero-β-D-gluco-heptopyranoside] gave an IC50 of 77 nM. Consider `Cc1ccc(Cc2c(F)cc(CO)cc2O[C@@H]2O[C@H]([C@@H](C)O)[C@@H](O)[C@H](O)[C@H]2O)cc1` [Example 97, 3-Fluoro-5-hydroxymethyl-2-(4-methylbenzyl)phenyl 7-deoxy-D-glycero-β-D-gluco-heptopyranoside], for which the IC50 amounted to 52 nM. The compound `Cc1ccc(Cc2ccc(CO)cc2O[C@@H]2O[C@H]([C@@H](C)O)[C@@H](O)[C@H](O)[C@H]2O)cc1` [Example 98, 5-Hydroxymethyl-2-(4-methylbenzyl)phenyl 7-deoxy-D-glycero-β-D-gluco-heptapyranoside] had an IC50 of 180 nM. Turning to `C=Cc1cc(CO)cc(O[C@@H]2O[C@H]([C@@H](C)O)[C@@H](O)[C@H](O)[C@H]2O)c1Cc1ccc(OC)cc1` [Example 101, 5-Hydroxymethyl-2-(4-methoxybenzyl)-3-vinyl-phenyl 7-deoxy-D-glycero-β-D-gluco-heptopyranoside], the IC50 amounted to 168 nM.
